Results on one molecule are retold here after US20030092686A1, “Method of determining the initial dose of vitamin D compounds” (priority 2000, published 2003).

The subject of this series is adult ESRD patients. The series is described as follows: Double-blind, randomized, 12-week trial of starting dose of paricalcitol injection (baseline PTH/80 vs 0.04 mcg/kg). Type of series: in vivo, human. Particulars: for Incidences of Ca × P > 75: 2 consecutive occurrences of CaxP>75; for Median Number of Dose Adjustments: adjustments to achieve the first of 4 consecutive ≧30% decreases from baseline PTH; for Incidence(s) of Hypercalcemia: single episode, Ca>11.5 miligram/deciliter, 3x weekly, 12-week trial; for Median Days to First of 4 ≧ 30% PTH Decreases: statistically significant (P = 0.0306). The procedure: A double-blind, randomized, 12-week trial was conducted in 125 adult ESRD patients to determine if a starting dose of paricalcitol injection using baseline PTH/80 was equivalent in the rate of hypercalcemia (single episode, Ca>11.5 miligram/deciliter) compared to the approved initial dose (0.04 mcg/kg, dry weight). Patients were randomized (1:1) to doses by either PTH/80 or 0.04 mcg/kg. Baseline demographics and laboratory values were similar between groups. Dosing occurred 3×weekly per patient hemodialysis schedule. Dose increases of 2 mcg could occur once per 2 weeks; decreases of 2 mcg could occur once per week. Patients completed the study by reducing PTH≧30% from baseline for 4 consecutive weekly measurements, or by having a single incidence of hypercalcemia, or by completing 12 weeks of treatment. The primary analysis was a comparison of the incidence of hypercalcemia between groups. Secondary analyses included the time in days to the first of 4 consecutive≧30% decreases from baseline PTH levels, the difference in the number of dose adjustments to achieve the first of 4 consecutive≧30% decreases from baseline PTH levels, and the difference in the incidence rates of 2 consecutive occurrences of CaxP>75.

The mark [1] stands for this setting: initial dose 0.04 mcg/kg dry weight.

With `C[C@H](/C=C/[C@H](C)C(C)(C)O)[C@H]1CC[C@H]2/C(=C/C=C3C[C@@H](O)C[C@H](O)C3)CCC[C@]12C` [paricalcitol injection, Paricalcitol], under setting [1], the “Mean PTH Decrease (SE)” value was −193 (24.59) pg/mL, the “Incidences of Ca × P > 75” value came out at 2, the “Median Number of Dose Adjustments” value stood at 3 and the “Incidence(s) of Hypercalcemia” value is reported as 0. Moreover, the “Median Days to First of 4 ≧ 30% PTH Decreases” value under setting [1] was 45 days. Also, for the setting “initial dose baseline PTH/80”, the “Mean PTH Decrease (SE)” value was −259 (24.01) pg/mL, the “Incidences of Ca × P > 75” value worked out at 5, the “Median Number of Dose Adjustments” value was determined as 2 and the “Incidence(s) of Hypercalcemia” value was 0. For the same molecule, the “Median Days to First of 4 ≧ 30% PTH Decreases” value (initial dose baseline PTH/80) turned out to be 31 days.
